Data: ChEMBL document CHEMBL1817576, “Specific inhibitions of annonaceous acetogenins on class II 3-hydroxy-3-methylglutaryl coenzyme A reductase from Streptococcus pneumoniae” (Bioorg Med Chem, 2011)
Blank lines part the entries; values can stand above or below the molecule they belong to.

How the values were obtained:
[1] = Inhibition of Streptococcus pneumoniae recombinant HMGR class II expressed in Escherichia coli using HMG-CoA as substrate
[2] = test system: Streptococcus pneumoniae; test: Ratio Ki for lovastatin to compound for recombinant Streptococcus pneumoniae HMGR class II
[3] = Inhibition of Listeria monocytogenes recombinant HMGR class II expressed in Escherichia coli using HMG-CoA as substrate
[4] = Inhibition of Archaeoglobus fulgidus HMGCR 1 recombinant HMGR class II expressed in Escherichia coli using HMG-CoA as substrate
[5] = Inhibition of Staphylococcus aureus recombinant HMGR class II expressed in Escherichia coli using HMG-CoA as substrate
[6] = Inhibition of Pseudomonas mevalonii recombinant HMGR class II expressed in Escherichia coli using HMG-CoA as substrate; parameters: species or system Pseudomonas sp. 'mevalonii'
[7] = test system: Staphylococcus aureus; test: Activity of Staphylococcus aureus HMGR class II expressed in Escherichia coli BL21(DE3) using HMG-CoA substrate after 1 min by microplate reader
[8] = test system: Haloferax volcanii; test: Activity of Haloferax volcanii HMGR class I expressed in Escherichia coli BL21(DE3) using HMG-CoA substrate after 1 min by microplate reader
[9] = test system: Streptococcus pneumoniae; test: Activity of Streptococcus pneumoniae recombinant HMGR class II expressed in Escherichia coli BL21(DE3) using HMG-CoA substrate after 1 min by microplate reader
[10] = organism: Mesocricetus auratus; test: Activity of syrian hamsters HMGR class I expressed in Escherichia coli BL21(DE3) using HMG-CoA substrate after 1 min by microplate reader
[11] = test system: Listeria monocytogenes; test: Activity of Listeria monocytogenes HMGR class II expressed in Escherichia coli BL21(DE3) using HMG-CoA substrate after 1 min by microplate reader
[12] = test system: Haloferax volcanii; test: Activity of Haloferax volcanii HMGR class I expressed in Escherichia coli BL21(DE3) using NADPH as substrate after 5 min by microplate reader
[13] = test system: Streptococcus pneumoniae; test: Ratio of Kcat to Km for Streptococcus pneumoniae HMGR class II using NADPH substrate
[14] = test system: Listeria monocytogenes; test: Activity of Listeria monocytogenes HMGR class II expressed in Escherichia coli BL21(DE3) using NADPH as substrate after 5 min by microplate reader
[15] = test system: Staphylococcus aureus; test: Activity of Staphylococcus aureus HMGR class II expressed in Escherichia coli BL21(DE3) using NADPH as substrate after 5 min by microplate reader
[16] = test system: Listeria monocytogenes; test: Ratio of Kcat to Km for Listeria monocytogenes HMGR class II using NADPH substrate
[17] = test system: Streptococcus pneumoniae; test: Activity of Streptococcus pneumoniae recombinant HMGR class II expressed in Escherichia coli BL21(DE3) using NADPH as substrate after 5 min by microplate reader
[18] = organism: Mesocricetus auratus; test: Activity of syrian hamsters HMGR class I expressed in Escherichia coli BL21(DE3) using NADPH as substrate after 5 min by microplate reader

Compound: CCCCCCCCCCC(O)C1CCC(C2CCC(C(O)CCCCCCCC[C@H](O)CC3=C[C@@H](C)OC3=O)O2)O1 (some centres undefined) [ASIMICIN]
Ki [1]: 12.2 µM

Ratio Ki [2]: 20
Compound: CC[C@H](C)C(=O)O[C@H]1C[C@@H](C)C=C2C=C[C@H](C)[C@H](CC[C@@H]3C[C@@H](O)CC(=O)O3)[C@H]21 [LOVASTATIN]
Ki [3]: 130 µM
Ki [4]: 530 µM
Ki [5]: 320 µM
Ki [1]: 116 µM
Ki [6]: 180 µM

Compound: CCCCCCCCCC[C@H](O)[C@H]1CC[C@H]([C@H](O)CC[C@H](O)[C@@H]2CC[C@@H](CCCCCCC[C@@H](O)CC3=C[C@H](C)OC3=O)O2)O1 [BULLATALICIN]
Ki [1]: 17.7 µM

Km [7]: 40 µM
Km [8]: 60 µM
Km [9]: 75.9 µM
Km [10]: 20 µM
Km [11]: 19.8 µM
Compound: CC(C)(CO[P@@](=O)(O)O[P@@](=O)(O)OC[C@H]1O[C@@H](n2cnc3c(N)ncnc32)[C@H](O)[C@@H]1OP(=O)(O)O)[C@@H](O)C(=O)NCCC(=O)NCCSC(=O)C[C@@](C)(O)CC(=O)O

Km [12]: 66 µM
kcat/Km [13]: 322000 M⁻¹ s⁻¹
Km [14]: 12.9 µM
kcat [14]: 22.6 s⁻¹
Km [15]: 70 µM
kcat/Km [16]: 186000 M⁻¹ s⁻¹
Km [17]: 38.9 µM
kcat [17]: 11.9 s⁻¹
Km [18]: 80 µM
Compound: NC(=O)c1ccc[n+]([C@@H]2O[C@H](COP(=O)([O-])OP(=O)(O)OC[C@H]3O[C@@H](n4cnc5c(N)ncnc54)[C@H](OP(=O)(O)O)[C@@H]3O)[C@@H](O)[C@H]2O)c1

Compound: CCCCC[C@H](O)CCCC[C@H](O)[C@H]1CC[C@H]([C@H]2CC[C@H]([C@H](O)CCCCCCCCCCCCC3=C[C@H](C)OC3=O)O2)O1 [MOTRILIN]
Ki [1]: 20.5 µM

Compound: CCCCCC[C@H](O)CCC[C@H](O)[C@H]1CC[C@H]([C@H](O)CC[C@H](O)[C@@H]2CC[C@@H](CCCCCCCCCC3=C[C@H](C)OC3=O)O2)O1 [SQUAMOSTATIN A]
Ki [1]: 6.45 µM
